Laboratory results: patent US20230192699A1, “COMPOUNDS AS CASEIN KINASE INHIBITORS” (GRITSCIENCE BIOPHARMACEUTICALS CO., LTD., priority 2020, published 2023)

These compounds were tested against wild type CK1δ (Homo sapiens, UniProt P48730) (assay: CK1δ kinase assay (Kinase-Glo)). Settings: 10 μM ATP, 2 nM wild type CK1δ, 85 min at 25° C.; read-out: CK1δ inhibition (IC50).
Chain of wild type CK1δ (P48730 whole entry): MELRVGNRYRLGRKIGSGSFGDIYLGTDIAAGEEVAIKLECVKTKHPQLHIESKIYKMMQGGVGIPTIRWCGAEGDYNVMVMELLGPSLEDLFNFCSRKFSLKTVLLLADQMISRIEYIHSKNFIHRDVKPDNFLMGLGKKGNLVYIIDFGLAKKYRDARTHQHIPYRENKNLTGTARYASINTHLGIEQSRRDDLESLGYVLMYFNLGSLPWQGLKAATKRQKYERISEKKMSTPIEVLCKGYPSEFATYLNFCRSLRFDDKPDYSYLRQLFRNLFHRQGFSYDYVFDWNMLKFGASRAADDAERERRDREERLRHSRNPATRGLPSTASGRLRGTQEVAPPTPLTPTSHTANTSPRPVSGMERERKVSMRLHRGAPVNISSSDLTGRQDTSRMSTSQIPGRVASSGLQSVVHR
Type: biochemical
Description: The CK1δ kinase assay was performed with a buffer (40 μL, pH 7.5) containing 50 mM Tris, 10 mM MgCl2, 1 mM dithiothreitol, 100 μg/mL BSA with 10 μM ATP, 2 nM wild type CK1δ, and 42 μM peptide substrate PLSRTLpSVASLPGL (Flotow et al., 1990) in the presence of 1 μL of a CK1δ inhibitor (e.g., a compound of the present application) or 4% DMSO (e.g., as control). The reaction mixture was incubated for 85 min at 25° C.; detection was carried out as described for the Kinase-Glo Assay (Promega). Luminescent output was measured on the Perkin Elmer Envision plate reader (PerkinElmer, Waltham, Mass.).
With Cn1cc(-c2ccncc2)c(-c2ccc(F)cc2Cl)n1 [Compound 3-18, 4-(3-(2-chloro-4-fluorophenyl)-1-methyl-1H-pyrazol-4-yl)pyridine] the IC50 was 4390 nM. For CC(=O)N1CCn2nc(-c3ccc(F)cc3)c(-c3ccnc(C)c3)c2C1 [Compound 1-33, 1-(2-(4-fluorophenyl)-3-(2-methylpyridin-4-yl)-6,7-dihydropyrazolo[1,5-a]pyrazin-5(4H)-yl)ethan-1-one], the IC50 was 177 nM. Fc1ccc(-n2nc3c(c2-c2ccncc2)CCCC3)cc1 [Compound 1-16, 2-(4-fluorophenyl)-3-(pyridin-4-yl)-4,5,6,7-tetrahydro-2H-indazole] was tested, and the IC50 was 9780 nM. CC(=O)N1CCn2nc(-c3ccc(F)cc3)c(-c3ccnc(C(C)C)c3)c2C1 [Compound 1-53, 1-(2-(4-fluorophenyl)-3-(2-isopropylpyridin-4-yl)-6,7-dihydropyrazolo[1,5-a]pyrazin-5(4H)-yl)ethan-1-one] gave an IC50 of 17000 nM. Fc1ccc(-n2nncc2-c2ccncc2)cc1 [Compound 4-1, 4-(1-(4-fluorophenyl)-1H-1,2,3-triazol-5-yl)pyridine] gave an IC50 of 215 nM. For CN1CCn2nc(-c3ccc(F)cc3)c(-c3ccncc3)c2C1 [Compound 1-42, 2-(4-fluorophenyl)-5-methyl-3-(pyridin-4-yl)-4,5,6,7-tetrahydropyrazolo[1,5-a]pyrazine], the IC50 was 161 nM. Compound Cn1nnc(-c2ccc(F)cc2)c1-c1ccncc1 [Compound 3-9, 4-(4-(4-fluorophenyl)-1-methyl-1H-1,2,3-triazol-5-yl)pyridine] has an IC50 of 21400 nM. Compound O=C1OCc2nccc(-c3c(-c4ccc(F)cc4)nc4cnccn34)c21 [Compound 1-8, 4-(2-(4-fluorophenyl)imidazo[1,2-a]pyrazin-3-yl)furo[3,4-b]pyridin-5(7H)-one] has an IC50 of over 100000 nM. With Cn1cc(-c2ccnc3c2C(=O)OC3)c(-c2ccc(F)cc2)c1C#N [Compound 5-1, 3-(4-fluorophenyl)-1-methyl-4-(5-oxo-5,7-dihydrofuro[3,4-b]pyridin-4-yl)-1H-pyrrole-2-carbonitrile] the IC50 was 132 nM. CC(=O)N1CCn2nc(-c3ccc(F)cc3)c(-c3cc[n+]([O-])c(C)c3)c2C1 [Compound 1-34, 4-(5-acetyl-2-(4-fluorophenyl)-4,5,6,7-tetrahydropyrazolo[1,5-a]pyrazin-3-yl)-2-methylpyridine-1-oxide] was tested, and the IC50 was over 100000 nM. CC(=O)N1CCn2nc(-c3ccc(F)cc3)c(-c3ccnc(C)n3)c2C1 [Compound 1-51, 1-(2-(4-fluorophenyl)-3-(2-methylpyrimidin-4-yl)-6,7-dihydropyrazolo[1,5-a]pyrazin-5(4H)-yl)ethan-1-one] gave an IC50 of 963 nM. For Cc1cc(-c2c(-c3ccc(F)cc3)nn3c2CN(C(=O)C2CCN(C)CC2)CC3)ccn1 [Compound 1-55, (2-(4-fluorophenyl)-3-(2-methylpyridin-4-yl)-6,7-dihydropyrazolo[1,5-a]pyrazin-5(4H)-yl)(1-methylpiperidin-4-yl)methanone], the IC50 was 496 nM. For Cn1cc(-c2ccncc2)c(-c2cc(F)cc(F)c2)n1 [Compound 3-17, 4-(3-(3,5-difluorophenyl)-1-methyl-1H-pyrazol-4-yl)pyridine], the IC50 was 1020 nM. Work on Fc1ccc(-c2nn3c(c2-c2ccncc2)COCCC3)cc1 [Compound 1-47, 2-(4-fluorophenyl)-3-(pyridin-4-yl)-7,8-dihydro-4H,6H-pyrazolo[5,1-c][1,4]oxazepine] yielded an IC50 of 686 nM. In the case of COC(=O)c1[nH]cc(-c2ccncc2)c1-c1ccc(F)cc1 [Compound 3-4, methyl 3-(4-fluorophenyl)-4-(pyridin-4-yl)-1H-pyrrole-2-carboxylate], the IC50 is reported as 480 nM. Cn1cc(-c2ccnc3[nH]cnc23)c(-c2ccc(F)cc2)c1C#N [Compound 5-4, 3-(4-fluorophenyl)-4-(3H-imidazo[4,5-b]pyridin-7-yl)-1-methyl-1H-pyrrole-2-carbonitrile] gave an IC50 of 2200 nM. For Cn1cc(-c2ccncc2)c(-c2ccc(F)c(F)c2)n1 [Compound 3-16, 4-(3-(3,4-difluorophenyl)-1-methyl-1H-pyrazol-4-yl)pyridine], the IC50 was 497 nM. For Fc1ccc(-c2nocc2-c2ccncc2)cc1 [Compound 3-20, 3-(4-fluorophenyl)-4-(pyridin-4-yl)isoxazole], the IC50 was 3660 nM. Work on Fc1ccc(-c2nc3cnccn3c2-c2ccncc2)cc1 [Compound 1-5, 2-(4-fluorophenyl)-3-(pyridin-4-yl)imidazo[1,2-a]pyrazine] yielded an IC50 of 499 nM. Work on CCC(=O)N1CCn2nc(-c3ccc(F)cc3)c(-c3ccncc3)c2C1 [Compound 1-31, 1-(2-(4-fluorophenyl)-3-(pyridin-4-yl)-6,7-dihydropyrazolo[1,5-a]pyrazin-5(4H)-yl)propan-1-one] yielded an IC50 of 81.3 nM. With CC(=O)N1CCn2c(nc(-c3ccc(F)cc3)c2-c2ccncc2)C1 [Compound 1-7, 1-(2-(4-fluorophenyl)-3-(pyridin-4-yl)-5,6-dihydroimidazo[1,2-a]pyrazin-7(8H)-yl)ethan-1-one] the IC50 was 614 nM. Fc1ccc(-c2nc3n(c2-c2ccncc2)CCNC3)cc1 [Compound 1-6, 2-(4-fluorophenyl)-3-(pyridin-4-yl)-5,6,7,8-tetrahydroimidazo[1,2-a]pyrazine] gave an IC50 of 254 nM. Work on C[C@H]1Cn2nc(-c3ccc(F)cc3)c(-c3ccncc3)c2CO1 [Compound 1-45, (S)-2-(4-fluorophenyl)-6-methyl-3-(pyridin-4-yl)-6,7-dihydro-4H-pyrazolo[5,1-c][1,4]oxazine] yielded an IC50 of 370 nM. Work on Cn1cc(-c2ccncc2)c(-c2ccccc2F)n1 [Compound 3-14, 4-(3-(2-fluorophenyl)-1-methyl-1H-pyrazol-4-yl)pyridine] yielded an IC50 of 1080 nM. CC(C)C(=O)N1CCn2nc(-c3ccc(F)cc3)c(-c3ccncc3)c2C1 [Compound 1-32, 1-(2-(4-fluorophenyl)-3-(pyridin-4-yl)-6,7-dihydropyrazolo[1,5-a]pyrazin-5(4H)-yl)-2-methylpropan-1-one] was tested, and the IC50 was 368 nM. C[C@@H]1CNC(=O)c2c(-c3ccncc3)c(-c3ccc(F)cc3)nn21 [Compound 1-44, (R)-2-(4-fluorophenyl)-7-methyl-3-(pyridin-4-yl)-6,7-dihydropyrazolo[1,5-a]pyrazin-4(5H)-one] gave an IC50 of 1840 nM. With Cn1cc(-c2ccncc2)c(-c2ccc(F)cc2)c1C(N)=O [Compound 3-2, 3-(4-fluorophenyl)-1-methyl-4-(pyridin-4-yl)-1H-pyrrole-2-carboxamide] the IC50 was 11100 nM. Fc1ccc(-c2nn3c(c2-c2ccncc2)CN(Cc2ccccc2)CC3)cc1 [Compound 1-12, 5-benzyl-2-(4-fluorophenyl)-3-(pyridin-4-yl)-4,5,6,7-tetrahydropyrazolo[1,5-a]pyrazine] gave an IC50 of 74.9 nM. Fc1ccc(-c2nn3c(c2-c2ccncc2)COCC3)cc1 [Compound 1-27, 2-(4-fluorophenyl)-3-(pyridin-4-yl)-6,7-dihydro-4H-pyrazolo[5,1-c][1,4]oxazine] showed an IC50 of 163 nM. Fc1ccc(-c2nn3c(c2-c2ccncc2)CNCC3)cc1 [Compound 1-13, 2-(4-fluorophenyl)-3-(pyridin-4-yl)-4,5,6,7-tetrahydropyrazolo[1,5-a]pyrazine] gave an IC50 of 67.3 nM. Cn1cc(-c2ccncc2)c(-c2ccc(F)cc2)c1C#N [Compound 3-1, 3-(4-fluorophenyl)-1-methyl-4-(pyridin-4-yl)-1H-pyrrole-2-carbonitrile] gave an IC50 of 180 nM. With Cn1cc(-c2ccncc2)c(-c2cccc(F)c2)n1 [Compound 3-19, 4-(3-(3-fluorophenyl)-1-methyl-1H-pyrazol-4-yl)pyridine] the IC50 was 281 nM. CCc1cc(-c2c(-c3ccc(F)cc3)nn3c2CN(C(C)=O)CC3)ccn1 [Compound 1-52, 1-(3-(2-ethylpyridin-4-yl)-2-(4-fluorophenyl)-6,7-dihydropyrazolo[1,5-a]pyrazin-5(4H)-yl)ethan-1-one] showed an IC50 of 3110 nM. In the case of Cc1cc(-c2ccnc3c2C(=O)OC3)n(-c2ccc(F)cc2)n1 [Compound 6-1, 4-(1-(4-fluorophenyl)-3-methyl-1H-pyrazol-5-yl)furo[3,4-b]pyridin-5(7H)-one], the IC50 is reported as 93 nM. Cn1nc(-c2ccncc2)c(-c2ccc(F)cc2)n1 [Compound 3-6, 4-(5-(4-fluorophenyl)-2-methyl-2H-1,2,3-triazol-4-yl)pyridine] showed an IC50 of 178 nM. For COC(=O)c1c(-c2ccc(F)cc2)c(-c2ccncc2)cn1C [Compound 3-5, methyl 3-(4-fluorophenyl)-1-methyl-4-(pyridin-4-yl)-1H-pyrrole-2-carboxylate], the IC50 was 7710 nM. In the case of CN1CCC(C(=O)N2CCn3nc(-c4ccc(F)cc4)c(-c4ccncc4)c3C2)CC1 [Compound 1-36, (2-(4-fluorophenyl)-3-(pyridin-4-yl)-6,7-dihydropyrazolo[1,5-a]pyrazin-5(4H)-yl)(1-methylpiperidin-4-yl)methanone], the IC50 is reported as 279 nM. With Nc1cc(-c2c(-c3ccc(F)cc3)nn3c2CNCC3)ccn1 [Compound 1-58, 4-(2-(4-fluorophenyl)-4,5,6,7-tetrahydropyrazolo[1,5-a]pyrazin-3-yl)pyridin-2-amine] the IC50 was 723 nM. Work on Cc1cc(-c2c(-c3ccc(F)cc3)nn3c2CN(C)CC3)ccn1 [Compound 1-56, 2-(4-fluorophenyl)-5-methyl-3-(2-methylpyridin-4-yl)-4,5,6,7-tetrahydropyrazolo[1,5-a]pyrazine] yielded an IC50 of 106 nM. O=C1OCc2nccc(-c3cn4c(c3-c3ccc(F)cc3)C(=O)NCC4)c21 [Compound 5-5, 4-(8-(4-fluorophenyl)-1-oxo-1,2,3,4-tetrahydropyrrolo[1,2-a]pyrazin-7-yl)furo[3,4-b]pyridin-5(7H)-one] showed an IC50 of 320 nM. Cn1cc(-c2ccncc2)c(-c2ccc(F)cc2F)n1 [Compound 3-15, 4-(3-(2,4-difluorophenyl)-1-methyl-1H-pyrazol-4-yl)pyridine] showed an IC50 of 531 nM.
